Laboratory results taken from the supplement of paper PMC10307832.

Legend:
Assay in all cases: relative viability (nuclei count vs DMSO), 5 days (fraction); higher = more cells survive
[1] = compound: CNC(=O)c1ccccc1Sc1ccc2c(/C=C/c3ccccn3)n[nH]c2c1 [Axitinib] + NC(=O)Nc1cc(-c2cccc(F)c2)sc1C(=O)N[C@H]1CCCNC1 [AZD7762] (partner 0.2 µM)
Procedure, shortened: (§1)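 Lung cancer cell lines were pin-tool dosed in 1536-well plates on the day after seeding, with either a lone drug or a fixed anchor-drug dose plus five library-drug doses (not always all listed) in √10 steps. Nuclei were counted on 4× images after 5 days. Relative viability is the ratio of treated-well to vehicle-well nuclei counts, with each value a median of duplicate plates.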

[2] = compound: CNC(=O)c1ccccc1Sc1ccc2c(/C=C/c3ccccn3)n[nH]c2c1 [Axitinib] + CCNC(=O)c1noc(-c2cc(C(C)C)c(O)cc2O)c1-c1ccc(CN2CCOCC2)cc1 [Luminespib] (partner 0.01 µM)
Procedure, shortened: as §1

[3] = compound: CC1=CC=C(C=C1)C(=O)CN2C3=C(CCCC3)SC2=N [Pifithrin_alpha] + Nc1nc2[nH]cc(CCc3ccc(C(=O)N[C@@H](CCC(=O)O)C(=O)O)cc3)c2c(=O)[nH]1 [Pemetrexed] (partner 0.2 µM)
Procedure, shortened: as §1

[4] = compound: CC1=CC=C(C=C1)C(=O)CN2C3=C(CCCC3)SC2=N [Pifithrin_alpha] + CC(=O)Nc1cccc(-n2c(=O)n(C3CC3)c(=O)c3c(Nc4ccc(I)cc4F)n(C)c(=O)c(C)c32)c1 [Trametinib] (partner 0.02 µM)
Procedure, shortened: as §1

Cell Line | relative viability ([1]; first compound 0.005 µM) | relative viability ([1]; first compound 0.01581 µM) | relative viability ([1]; first compound 0.05 µM) | relative viability ([1]; first compound 0.1581 µM) | relative viability ([1]; first compound 0.5 µM) | relative viability ([2]; first compound 0.005 µM) | relative viability ([2]; first compound 0.01581 µM) | relative viability ([2]; first compound 0.05 µM) | relative viability ([2]; first compound 0.1581 µM) | relative viability ([2]; first compound 0.5 µM) | relative viability ([3]; first compound 1 µM) | relative viability ([3]; first compound 3.162 µM) | relative viability ([3]; first compound 10 µM) | relative viability ([3]; first compound 100 µM) | relative viability ([4]; first compound 1 µM) | relative viability ([4]; first compound 3.162 µM) | relative viability ([4]; first compound 10 µM) | relative viability ([4]; first compound 100 µM) | relative viability ([3]; first compound 31.62 µM) | relative viability ([4]; first compound 31.62 µM)
CAL-12T | 0.623 | 0.576 | 0.615 | 0.564 | 0.561 | 0.96 | 0.302 | 0.216 | 0.672 | 0.364 | 1.31 | 1.29 | 1.1 | 1.19 | 0.295 | 0.331 | 0.274 | 0.268 | – | –
EPLC-272H | 0.245 | 0.165 | 0.269 | 0.234 | 0.197 | 0.332 | 0.376 | 0.338 | 0.251 | 0.314 | 0.444 | 0.3 | 0.249 | 0.382 | – | 0.282 | 0.281 | 0.268 | 0.295 | 0.284
NCI-H2170 | 1.13 | 0.958 | 0.948 | 0.792 | 0.87 | 0.718 | 0.639 | 0.743 | 0.647 | 0.688 | 0.279 | 0.296 | 0.3 | 0.255 | 0.994 | 0.987 | 0.836 | 0.903 | 0.234 | 0.794
SW 900 | 0.52 | – | 0.562 | 0.579 | 0.66 | 0.167 | 0.162 | 0.159 | 0.185 | 0.18 | 0.493 | 0.509 | 0.499 | 0.371 | 0.698 | 0.801 | 0.636 | 0.723 | 0.503 | 0.57
NCI-H1915 | 0.743 | 0.671 | 0.71 | 0.713 | 0.717 | 0.787 | 0.795 | 0.902 | 0.84 | 0.861 | 0.478 | 0.547 | 0.441 | 0.598 | 0.291 | 0.296 | 0.302 | 0.308 | – | –
NCI-H2087 | 1.37 | 1.42 | 1.47 | 1.25 | 1.43 | 0.162 | 0.202 | 0.177 | 0.176 | 0.172 | 0.608 | 0.665 | 0.593 | 0.74 | 0.178 | 0.196 | 0.169 | 0.165 | 0.597 | 0.183
LCLC-97TM1 | 0.22 | 0.327 | 0.218 | 0.281 | 0.374 | 0.671 | 0.826 | 0.663 | 0.672 | 0.722 | – | 0.184 | 0.183 | 0.15 | – | 0.167 | 0.191 | 0.18 | – | –
NCI-H1734 | 0.64 | 0.573 | 0.56 | 0.579 | 0.668 | 0.19 | 0.221 | 0.212 | 0.2 | 0.191 | 0.452 | 0.434 | 0.428 | 0.358 | 0.716 | 0.769 | 0.648 | 0.666 | 0.367 | 0.623
EKVX | 0.782 | 0.617 | 0.883 | 0.636 | 0.644 | 0.879 | 0.86 | 0.828 | 0.878 | 0.965 | 0.514 | 0.352 | 0.37 | 0.316 | 0.394 | 0.532 | 0.269 | 0.21 | 0.266 | 0.28
201T | 0.626 | 0.56 | 0.593 | 0.539 | 0.59 | 1.04 | 1.04 | 1.09 | 0.989 | 1.04 | 0.315 | 0.337 | 0.296 | 0.295 | 0.752 | 0.616 | 0.61 | 0.518 | 0.29 | 0.529
NCI-H2085 | 1.04 | 0.908 | 1.03 | 0.983 | 0.952 | 0.451 | 0.389 | 0.404 | 0.502 | 0.415 | 0.945 | 0.819 | 0.888 | 0.713 | 0.452 | 0.444 | 0.461 | 0.445 | 0.835 | 0.463
NCI-H1395 | 0.4 | 0.378 | 0.386 | 0.405 | 0.386 | 0.8 | 0.76 | 0.838 | 0.609 | 0.586 | – | 0.897 | 0.907 | 0.908 | – | 1.03 | 1.11 | 1.19 | – | –
NCI-H2405 | 0.73 | 0.808 | 1.01 | 0.684 | 0.856 | 0.863 | 0.809 | 0.839 | 0.779 | 0.866 | – | 0.86 | 0.957 | 0.971 | – | 0.604 | 0.544 | 0.601 | 0.802 | 0.567
EMC-BAC-2 | 1.07 | 1.1 | 1.06 | 1.1 | 1.11 | 1.27 | 1.12 | 1.19 | 1.21 | 1.25 | 0.443 | 0.435 | 0.416 | 0.418 | – | 0.89 | – | 0.794 | 0.383 | 0.706
LCLC-103H | 0.843 | 0.752 | 0.816 | 0.836 | 0.674 | 0.988 | 0.917 | 0.978 | 0.924 | 0.994 | 0.46 | 0.433 | 0.436 | 0.493 | 0.681 | 0.597 | 0.646 | 0.702 | 0.458 | 0.623
BEN | 0.633 | 0.622 | 0.694 | 0.68 | 0.618 | 0.486 | 0.309 | 0.509 | 0.372 | 0.226 | 0.523 | 0.741 | 0.741 | 0.629 | 1.13 | 0.993 | 1.12 | 1.29 | 0.746 | 1.14
NCI-H1755 | 0.509 | 0.435 | 0.454 | 0.524 | 0.47 | 0.527 | 0.63 | 0.533 | 0.364 | 0.428 | 0.417 | 0.445 | 0.381 | 0.446 | 0.724 | 0.682 | 0.706 | 0.738 | 0.342 | 0.694
LU99A | 0.433 | 0.451 | 0.397 | 0.39 | 0.415 | 0.239 | 0.265 | 0.241 | 0.302 | 0.303 | 0.183 | 0.243 | 0.19 | 0.172 | 0.458 | 0.601 | 0.573 | 0.575 | – | –
NCI-H1793 | 0.514 | 0.394 | 0.565 | 0.304 | 0.486 | 0.148 | 0.23 | 0.16 | 0.187 | 0.169 | 0.538 | 0.79 | 0.888 | 0.695 | 0.419 | 0.371 | 0.365 | 0.437 | 0.671 | 0.496
NCI-H460 | 0.693 | 0.576 | 0.757 | 0.636 | 1.02 | 0.0293 | 0.0335 | 0.0318 | 0.0323 | 0.0338 | 0.0605 | 0.0587 | 0.0622 | 0.0898 | 0.0943 | 0.075 | 0.155 | 0.103 | 0.0636 | 0.0707
HARA | 0.315 | 0.447 | 0.369 | 0.348 | 0.313 | 0.791 | 0.823 | 0.901 | 0.721 | 0.639 | 0.234 | 0.232 | 0.266 | 0.23 | 0.557 | 0.695 | 0.836 | 0.45 | 0.248 | 0.493
